Measurements from US20250213475A1, “LIPOSOMAL COMPOSITIONS” (R.G.C.C. Holdings AG, priority 2022, published 2025).

Experiments:
[1] = Encapsulation efficacy, indirect from free drug in supernatant by UV/VIS; type: physicochemical; conditions: analogue 1 mg/mL
Description: At the end of the above encapsulation process, the solution was centrifuged at 15.000 rpm for 20 minutes and the supernatant was kept for indirect encapsulation determination. The precipitate was lyophilized and kept for further analysis and characterization.
The supernatants after each centrifugation were kept and used to evaluate the amount of the free drug. Subtracting the amount of the free drug at the supernatant from the total added drug, the rest is considered as encapsulated. Briefly, from each solution samples were collected in order to prepare solutions, which were then evaluated with UV/VIS spectrometry. Based on standard curves, in which the different nucleosides were measured in solution on a UV-VIS spectrometer, different the remaining quantity was calculated. The encapsulation efficacy was measured then based on the following equation:
[formula] Quantity of the Nucleoside Analogue in the liposome=(Quantity of the Nucleoside Analogue initially added−Quantity of the Nucleoside Analogue in the supernatant).
For example, for {[2-(6-amino-9H-purin-9-yl)quinazolin-4-yl]oxy}phosphonic acid system code 1, after the centrifugation, we keep the supernatant from which, a fraction is collected to prepare a solution with targeted concertation of 10 ppm. Based on the Dilution Equation, C1V1=C2V2, C1=1000, because we consider, at the initial solution that the concentration is 1000 ppm (based on the fact that all of the added nucleoside analogue would be in the supernatant) • C2: is the targeted concentration, here 10 ppm • V2: volume of the final solution, here 10 mL
Thus, we take 100 uL from the supernatant and we dilute it to 10 mL final volume. The sample is quantified by UV/VIS spectrometry and we calculate the actual concentration of the sample. The concentration is converted to mass and we can estimate the final mass of the nucleoside analogue in the supernatant and in the liposome.

[2] = system: human breast adenocarcinoma (triple negative) MDA-MB-231 cell line; test: AlamarBlue cytotoxicity assay, MDA-MB-231; type: cell-based; conditions: MDA-MB-231, 0.01 μM to 10 μM, 24 h, 48 h and 72 h
Description: The human breast adenocarcinoma (luminal type) MCF7 cell line (ECACC 86012803), human breast adenocarcinoma (triple negative) MDA-MB-231 cell line (ECACC 92020424), human colorectal carcinoma HCT116 cell line (ECACC 91091005) and human lung cancer COLO699N cell line (ECACC 93052608) were culture in RPMI 1640 medium Catalog #R0883 (Sigma-Aldrich, Darmstadt, Germany) supplemented with 10% fetal bovine serum Catalog #FB-1001/500 (BioSera, Nuaille, France) and 1% L-glutamine Catalog #G7513-100ML (Sigma-Aldrich, Darmstadt, Germany). All cell lines were maintained at 37° C. in a humidified 5% CO2 atmosphere. AlamarBlue assay was performed to assess cell viability. The viable cells were seeded at a density of 2×10^4 (200 μl/well) in 96-well plate and incubated at 37° C. and 5% CO2 for 24 h to form a cell monolayer. After 24 h of incubation, supernatant on the monolayer was aspirated and 200 μl of medium and varying concentrations of the substances were added and incubated for 24 h, 48 h and 72 h time points. […] Fluorescence was measured at 560 nm excitation and 590 nm emission wavelength. […] The average fluorescence was calculated for each triplicate. […] Results were calculated using the Microsoft Excel 2016. […]

[3] = system: human lung cancer COLO699N cell line; test: AlamarBlue cytotoxicity assay, COLO699N; type: cell-based; conditions: 0.01 μM to 10 μM, 24 h, 48 h and 72 h
Description: (§1) All cell lines were maintained at 37° C. in a humidified 5% CO2 atmosphere. AlamarBlue assay was performed to assess cell viability. The viable cells were seeded at a density of 2×10^4 (200 μl/well) in 96-well plate and incubated at 37° C. and 5% CO2 for 24 h to form a cell monolayer. After 24 h of incubation, supernatant on the monolayer was aspirated and 200 μl of medium and varying concentrations of the substances were added and incubated for 24 h, 48 h and 72 h time points. […] Fluorescence was measured at 560 nm excitation and 590 nm emission wavelength. The experiment was performed in triplicates. The average fluorescence was calculated for each triplicate. One sample t-test was used to determine differences in the mean by comparing the treated samples with the untreated controls. P values <0.05 were considered to indicate a statistically significant difference.

[4] = system: human colorectal carcinoma HCT116 cell line; test: AlamarBlue cytotoxicity assay, HCT116; type: cell-based; conditions: HCT116, 0.01 μM to 10 μM, 24 h, 48 h and 72 h
Description: as §1

[5] = system: human breast adenocarcinoma (luminal type) MCF7 cell line; test: AlamarBlue cytotoxicity assay, MCF7; type: cell-based; conditions: MCF7, 0.01 μM to 10 μM, 24 h, 48 h and 72 h
Description: as §1

[6] = liposomal system code 1, DSPE-PEG:CHOL:OA
[7] = liposomal system code 2, DSPE-PEG:CHOL
[8] = liposomal system code 3, DSPE-PEG:PC:CHOL
[9] = liposomal system code 4, DSPE-PEG:CHOL:OA:PC
[10] = liposomal system code 5, DSPE-PEG:OA

With Nc1ncnc2c1ncn2-c1nc(O)c2ccccc2n1 [2-(6-Amino-9H-purin-9-yl)quinazolin-4-ol, 2-(6-amino-9H-purin-9-yl)quinazolin-4-ol] the “Encapsulation Efficacy (EE %)” value [1, 6] was 55.2%, the “Encapsulation Efficacy (EE %)” value [1, 7] was 55.2% and the “Encapsulation Efficacy (EE %)” value [1, 8] was 65.1%. For the same compound, the “Encapsulation Efficacy (EE %)” value [1, 9] was 54.4%, the “Encapsulation Efficacy (EE %)” value [1, 10] was 65.6% and the “cytotoxic effect (in words)” value [2] was “no statistically significant cytotoxic effect”. The “cytotoxic effect (in words)” value [3] was “no statistically significant cytotoxic effect”, the “cytotoxic effect (in words)” value [4] was “no statistically significant cytotoxic effect” and the “cytotoxic effect (in words)” value [5] was “no statistically significant cytotoxic effect”.

With Nc1ccn(-c2nc(O)c3ccccc3n2)c(=O)n1 [4-amino-1-(4-hydroxyquinazolin-2-yl)-1,2-dihydropyrimidin-2-one] the “Encapsulation Efficacy (EE %)” value [1, 7] was 73.6% and the “Encapsulation Efficacy (EE %)” value [1, 8] was 76.2%.

For CC(=O)Nc1ccn(-c2nc(O)c3ccccc3n2)c(=O)n1 [N-[1-(4-hydroxyquinazolin-2-yl)-2-oxo-1,2-dihydropyrimidin-4-yl]acetamide], the “Encapsulation Efficacy (EE %)” value [1, 7] was 58.1% and the “Encapsulation Efficacy (EE %)” value [1, 8] was 89.9%.

In the case of Nc1ncnc2c1ncn2-c1nc(OP(=O)(O)O)c2ccccc2n1 [{[2-(6-amino-9H-purin-9-yl)quinazolin-4-yl]oxy}phosphonic acid], the “Encapsulation Efficacy (EE %)” value [1, 6] was 60.8%, the “Encapsulation Efficacy (EE %)” value [1, 7] was 76.8% and the “Encapsulation Efficacy (EE %)” value [1, 8] was 50.0%. The “Encapsulation Efficacy (EE %)” value [1, 9] was 60.8% and the “Encapsulation Efficacy (EE %)” value [1, 10] was 70.4%.
